Molecular target: QPCTL (Homo sapiens (Human), UniProt Q9NXS2)
Assay: QPCTL inhibition, SensoLyte Green Glutaminyl Cyclase Activity Assay
Type: biochemical
Settings: 0.8 nM 2x enzyme solution, 45 min at 37° C., 50 mM Tris pH 8.0, 1% DMSO
Method: Preparation of working solution: 2×Glutaminyl Cyclase substrate was diluted in assay buffer to […]. 2×enzyme solution and QPCTL was diluted in assay buffer to 0.8 nM. Glutaminyl Cyclase Developer was diluted in assay buffer to 1×(containing 10 mM 1-Benzyl-Imidazole). Serial dilution of test compounds was performed in DMSO. The final DMSO concentration in 100 μl reaction was 1%. The assay buffer was 50 mM Tris, pH 8.0, 0.01% BSA.
Procedure: 50 μL of 2×Glutaminyl Cyclase substrate solution was added into the assay plate followed by 50 μL of 2×enzyme solution. The plate was centrifuged for 1 min at 1000 rmp. Next the plate was incubated for 45 minutes at 37° C. This was followed by the additional of 50 μL of the prepared Glutaminyl Cyclase developer and incubated for additional 30 min at 37° C. Results were read on SpectraMax Paradigm detecting with emission at Ex/Em=490 nm/520 nm.
A Z′ value was calculated for each assay plate. The Z′ value must be >0.5 or the plate was disqualified. […] Results were calculated using GraphPad Prism 7 software is used for IC50 determination.

Chain of QPCTL (Q9NXS2 whole entry, species assumed): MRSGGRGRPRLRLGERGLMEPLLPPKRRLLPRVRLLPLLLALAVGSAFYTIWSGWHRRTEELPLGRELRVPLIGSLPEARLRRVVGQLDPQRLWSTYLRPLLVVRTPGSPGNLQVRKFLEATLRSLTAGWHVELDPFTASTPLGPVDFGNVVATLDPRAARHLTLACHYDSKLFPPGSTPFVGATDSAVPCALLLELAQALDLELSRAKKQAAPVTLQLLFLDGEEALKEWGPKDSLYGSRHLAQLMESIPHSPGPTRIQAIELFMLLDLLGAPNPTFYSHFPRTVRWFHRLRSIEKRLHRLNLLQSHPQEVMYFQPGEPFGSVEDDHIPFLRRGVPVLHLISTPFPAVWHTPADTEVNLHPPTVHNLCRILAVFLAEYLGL

Cc1cc(-n2cnc(C(F)(F)F)c2)ncc1[C@@H]1[C@H](C2CC2)C(=O)N1c1ccc2[nH]cnc2c1 (single isomer, unassigned) [Compound 73A] and Cc1cc(-c2cnn(C(F)(F)F)c2)ncc1[C@@H]1[C@H](C2CC2)C(=O)N1c1ccc2[nH]cnc2c1 (single isomer, unassigned) [Compound 66A] fall in the same range of IC50: 0.025 to 1 µM for the first, 0.025 to 1 µM for the second.

Going from Cn1cc(-c2cc(F)c([C@@H]3[C@H](O)C(=O)N3c3ccc4[nH]cnc4c3)c(F)c2)cn1 (single isomer, unassigned) [Compound 15A] to Cn1cc(-c2cc(F)c([C@H]3[C@@H](O)C(=O)N3c3ccc4[nH]cnc4c3)c(F)c2)cn1 (single isomer, unassigned) [Compound 15B], the IC50 falls from greater than 1 µM to less than 0.002 µM.

Compared with Cc1noc(C)c1-c1cc(F)c([C@H]2[C@@H](C3CC3)C(=O)N2c2ccc3[nH]cnc3c2)c(F)c1 (single isomer, unassigned) [Compound 64B], Cc1oncc1-c1cc(F)c([C@H]2[C@@H](C3CC3)C(=O)N2c2ccc3[nH]cnc3c2)c(F)c1 (single isomer, unassigned) [Compound 63B] is lower in IC50: 0.002 to 0.025 µM for the first, less than 0.002 µM for the second. The second is the more potent here.

Compared with Cc1nc(-c2cc(F)c([C@H]3[C@@H](C)C(=O)N3c3ccc4[nH]cnc4c3)c(F)c2)cs1 (racemic) [Compound 10CR, (cis and racemic)-1-(1H-benzo[d]imidazol-5-yl)-4-(2,6-difluoro-4-(2-methylthiazol-4-yl)phenyl)-3-methylazetidin-2-one], C[C@H]1C(=O)N(c2ccc3[nH]cnc3c2)[C@H]1c1c(F)cc(-c2cnn(C(F)F)c2)cc1F (single isomer, unassigned) [Compound 17B] is lower in IC50: 0.002 to 0.025 µM for the first, less than 0.002 µM for the second.

Cc1ccc(-c2ccc([C@@H]3[C@H](C4CC4)C(=O)N3c3ccc4[nH]cnc4c3)c(C)n2)nn1 (single isomer, unassigned) [Compound 71A] and Cc1nc(-c2ccc(C(F)(F)F)nn2)ccc1[C@@H]1[C@H](C2CC2)C(=O)N1c1ccc2[nH]cnc2c1 (single isomer, unassigned) [Compound 70A] fall in the same range of IC50: 0.025 to 1 µM for the first, 0.025 to 1 µM for the second.

O=C1[C@@H](C2CC2)[C@@H](c2c(F)cc(-c3cnn(C(F)(F)F)c3)cc2F)N1c1ccc2[nH]cnc2c1 (single isomer, unassigned) [Compound 35A] and O=C1[C@@H](C2CC2)[C@@H](c2c(F)cc(-c3cn(C(F)(F)F)nn3)cc2F)N1c1ccc2[nH]cnc2c1 (single isomer, unassigned) [Compound 50A] fall in the same range of IC50: 0.025 to 1 µM for the first, 0.025 to 1 µM for the second.

First: Cc1cc(-c2ccc(C(F)(F)F)nn2)ccc1[C@H]1[C@@H](C2CC2)C(=O)N1c1ccc2[nH]cnc2c1 (single isomer, unassigned) [Compound 67B]
Second: O=C1[C@@H](C2CC2)[C@@H](c2c(F)cc(-c3ccc(C(F)(F)F)nn3)cc2F)N1c1ccc2[nH]cnc2c1 [Compound 52A]
The IC50 of the first is lower: less than 0.002 µM for the first, 0.025 to 1 µM for the second.

First: Cc1cc(-c2cnn(C(F)(F)F)c2)ncc1[C@H]1[C@@H](C2CC2)C(=O)N1c1ccc2[nH]cnc2c1 (single isomer, unassigned) [Compound 66B]
Second: Cc1cc(-c2cnn(C(F)(F)F)c2)ccc1[C@@H]1[C@H](C2CC2)C(=O)N1c1ccc2[nH]cnc2c1 (single isomer, unassigned) [Compound 56A]
The IC50 of the first is lower: less than 0.002 µM for the first, 0.025 to 1 µM for the second.

Compared with O=C1[C@@H](C2CC2)[C@@H](c2ccc(-c3cnn(C(F)(F)F)c3)cc2C(F)(F)F)N1c1ccc2[nH]cnc2c1 (single isomer, unassigned) [Compound 76A], O=C1[C@H](C2CC2)[C@H](c2ccc(-c3cnn(C(F)(F)F)c3)cc2C(F)(F)F)N1c1ccc2[nH]cnc2c1 (single isomer, unassigned) [Compound 76B] is higher in IC50: less than 0.002 µM for the first, greater than 1 µM for the second. The first is the more potent here.

First: O=C1[C@H](C2CC2)[C@H](c2ccc(-c3cnn(C(F)(F)F)c3)cc2Cl)N1c1ccc2[nH]cnc2c1 (single isomer, unassigned) [Compound 75B]
Second: O=C1[C@@H](C2CC2)[C@@H](c2ccc(-c3cnn(C(F)(F)F)c3)cn2)N1c1ccc2[nH]cnc2c1 (single isomer, unassigned) [Compound 46A]
The IC50 of the first is lower: less than 0.002 µM for the first, 0.025 to 1 µM for the second.

First: O=C1[C@@H](C2CC2)[C@@H](c2c(F)cc(-n3ccc(C(F)(F)F)n3)cc2F)N1c1ccc2[nH]cnc2c1 (single isomer, unassigned) [Compound 48A]
Second: O=C1[C@H](C2CC2)[C@H](c2c(F)cc(-n3ncc(C(F)(F)F)n3)cc2F)N1c1ccc2[nH]cnc2c1 (single isomer, unassigned) [Compound 60B]
The IC50 of the first is higher: 0.002 to 0.025 µM for the first, less than 0.002 µM for the second.

First: O=C1N(c2ccc3[nH]cnc3c2)C(c2c(F)cc(OCCC(F)F)cc2F)C12CCC2 (racemic) [Compound 3, 2-(1H-benzo[d]imidazol-5-yl)-3-(4-(3,3-difluoropropoxy)-2,6-difluorophenyl)-2-azaspiro[3.3]heptan-1-one]
Second: O=C1C(O)C(c2c(F)cc(OCCC(F)F)cc2F)N1c1ccc2[nH]cnc2c1 (racemic) [Compound 8, (cis and racemic)-1-(1H-benzo[d]imidazol-5-yl)-4-(4-(3,3-difluoropropoxy)-2,6-difluorophenyl)-3-hydroxyazetidin-2-one]
The IC50 of the first is higher: 0.025 to 1 µM for the first, 0.002 to 0.025 µM for the second. The second is the more potent here.

Compared with O=C1[C@H](C2CC2)[C@H](c2c(F)cc(-c3cnccn3)cc2F)N1c1ccc2[nH]cnc2c1 (single isomer, unassigned) [Compound 53B], O=C1[C@@H](C2CC2)[C@@H](c2c(F)cc(-c3cnccn3)cc2F)N1c1ccc2[nH]cnc2c1 [Compound 53A] is higher in IC50: less than 0.002 µM for the first, greater than 1 µM for the second.

First: O=C1[C@@H](C2CC2)[C@@H](c2ccc(OCCC(F)F)nc2)N1c1ccc2[nH]cnc2c1 (single isomer, unassigned) [Compound 45A]
Second: C[C@H]1C(=O)N(c2ccc3[nH]cnc3c2)[C@H]1c1ccc(OCCC(F)F)nc1 (racemic) [Compound 23CR, (cis and racemic)-1-(1H-benzo[d]imidazol-5-yl)-4-(6-(3,3-difluoropropoxy)pyridin-3-yl)-3-methylazetidin-2-one]
The IC50 of the first is higher: 0.025 to 1 µM for the first, 0.002 to 0.025 µM for the second.

First: O=C1[C@H](C2CC2)[C@H](c2c(F)cc(-c3cn(C(F)(F)F)cn3)cc2F)N1c1ccc2[nH]cnc2c1 (single isomer, unassigned) [Compound 49B]
Second: O=C1[C@H](C2CC2)[C@H](c2c(F)cc(-c3ccc(C(F)(F)F)nn3)cc2F)N1c1ccc2[nH]cnc2c1 (single isomer, unassigned) [Compound 52B]
The IC50 of the first is higher: 0.002 to 0.025 µM for the first, less than 0.002 µM for the second.

Compared with O=C1[C@H](O)[C@H](c2c(F)cc(OCCC(F)F)cc2F)N1c1ccc2[nH]cnc2c1 (single isomer, unassigned) [Compound 8B], C[C@@H]1C(=O)N(c2ccc3[nH]cnc3c2)[C@H]1c1c(F)cc(OCCC(F)F)cc1F (single isomer, unassigned) [Compound 7A] is higher in IC50: less than 0.002 µM for the first, 0.025 to 1 µM for the second. The first is the more potent here.

First: Cc1cc([C@@H]2[C@H](C3CC3)C(=O)N2c2ccc3[nH]cnc3c2)ccc1-c1cnn(C(F)(F)F)c1 (single isomer, unassigned) [Compound 57A]
Second: O=C1[C@H](C2CC2)[C@H](c2ccc(-c3cnn(C(F)(F)F)c3)cc2)N1c1ccc2[nH]cnc2c1 (single isomer, unassigned) [Compound 55B]
The IC50 of the first is higher: 0.025 to 1 µM for the first, less than 0.002 µM for the second. The second is the more potent here.

First: O=C1[C@@H](C2CC2)[C@@H](c2c(F)cc(OCCC(F)F)cc2F)N1c1ccc2[nH]cnc2c1 (single isomer, unassigned) [Compound 18A]
Second: O=C1[C@H](C2COC2)[C@H](c2c(F)cc(OCCC(F)F)cc2F)N1c1ccc2[nH]cnc2c1 (single isomer, unassigned) [Compound 44B]
The IC50 of the first is higher: greater than 1 µM for the first, less than 0.002 µM for the second.

First: C[C@@H]1C(=O)N(c2ccc3[nH]cnc3c2)[C@@H]1c1c(F)cc(N2CCC(F)(F)CC2)cc1F (single isomer, unassigned) [Compound 30A]
Second: C[C@H]1C(=O)N(c2ccc3[nH]cnc3c2)[C@H]1c1c(F)cc(-n2cc(C(F)(F)F)cn2)cc1F (racemic) [Compound 28CR, (cis and racemic)-1-(1H-benzo[d]imidazol-5-yl)-4-(2,6-difluoro-4-(4-(trifluoromethyl)-1H-pyrazol-1-yl)phenyl)-3-methylazetidin-2-one]
The IC50 of the first is higher: greater than 1 µM for the first, 0.002 to 0.025 µM for the second. The second is the more potent here.

O=C1[C@H](C2CC2)[C@H](c2c(F)cc(C3CC3)cc2F)N1c1ccc2[nH]cnc2c1 (single isomer, unassigned) [Compound 69B] and Cc1cc(-c2cc(F)c([C@H]3[C@@H](C4CC4)C(=O)N3c3ccc4[nH]cnc4c3)c(F)c2)on1 (single isomer, unassigned) [Compound 62B] cannot be ordered by IC50: less than 0.002 µM for the first, less than 0.002 µM for the second.

First: O=C1[C@@H](C2CC2)[C@@H](c2ccc(-c3cnn(C(F)(F)F)c3)nc2)N1c1ccc2[nH]cnc2c1 (single isomer, unassigned) [Compound 43A]
Second: Cc1nc(-c2cnn(C(F)(F)F)c2)ccc1[C@H]1[C@@H](C2CC2)C(=O)N1c1ccc2[nH]cnc2c1 (single isomer, unassigned) [Compound 68B]
The IC50 of the first is higher: 0.025 to 1 µM for the first, less than 0.002 µM for the second.

First: Cc1ccc(-c2cc(F)c([C@H]3[C@@H](C4CC4)C(=O)N3c3ccc4[nH]cnc4c3)c(F)c2)nn1 (single isomer, unassigned) [Compound 65B]
Second: C[C@@H]1C(=O)N(c2ccc3[nH]cnc3c2)[C@@H]1c1c(F)cc(-c2cnn(C(F)F)c2)cc1F (single isomer, unassigned) [Compound 17A]
The IC50 of the first is lower: less than 0.002 µM for the first, 0.025 to 1 µM for the second. The first is the more potent here.

Compound CC[C@H]1C(=O)N(c2ccc3[nH]cnc3c2)[C@H]1c1c(F)cc(-c2cnn(C(F)(F)F)c2)cc1F (single isomer, unassigned) [Compound 51B] has an IC50 of less than 0.002 µM.

Source: US11834440B2, “Beta-lactam derivatives for the treatment of diseases” (Insilico Medicine IP Limited, priority 2021, dated 2023)
